From US20250064941A1, “SIGLEC LIGANDS, CONJUGATES, AND METHODS OF USE THEREOF” (Osprey Biopharmaceuticals, Inc., priority 2023, published 2025)

Experiments:
[1] = target: T1, mouse Siglec-2-Fc-Avi (CD22) (Mus musculus, UniProt P35329); assay: SPR binding affinity to mouse CD22; conditions: steady-state analysis
T1 construct: made in house
T1 sequence (P35329 22-708 limits assumed): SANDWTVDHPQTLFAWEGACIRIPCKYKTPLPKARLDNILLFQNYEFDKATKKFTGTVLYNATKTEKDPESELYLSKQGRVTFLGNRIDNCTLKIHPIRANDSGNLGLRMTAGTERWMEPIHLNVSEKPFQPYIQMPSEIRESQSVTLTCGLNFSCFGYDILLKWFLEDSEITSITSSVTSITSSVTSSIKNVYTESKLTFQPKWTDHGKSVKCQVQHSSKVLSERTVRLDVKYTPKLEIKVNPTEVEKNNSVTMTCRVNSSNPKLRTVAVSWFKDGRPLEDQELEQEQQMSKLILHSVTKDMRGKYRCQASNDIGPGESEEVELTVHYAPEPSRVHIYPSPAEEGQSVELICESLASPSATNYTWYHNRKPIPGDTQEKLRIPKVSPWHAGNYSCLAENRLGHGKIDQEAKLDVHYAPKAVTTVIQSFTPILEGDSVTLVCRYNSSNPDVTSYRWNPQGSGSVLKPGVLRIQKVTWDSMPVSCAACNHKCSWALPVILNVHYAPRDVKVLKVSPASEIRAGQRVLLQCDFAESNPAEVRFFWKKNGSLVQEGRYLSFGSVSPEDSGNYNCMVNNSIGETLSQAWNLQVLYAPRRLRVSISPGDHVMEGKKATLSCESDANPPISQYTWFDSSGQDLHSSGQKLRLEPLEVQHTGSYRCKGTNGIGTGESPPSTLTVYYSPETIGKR
Method in brief: (§1)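 Using a Biacore 8K, compounds were tested against biotinylated CD22 captured after sialidase treatment. The running buffer held 1% DMSO, corrected with a 0.5–2% DMSO series. Affinity was derived by steady-state analysis.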

[2] = target: T2, human Siglec-2/CD22 protein (Homo sapiens, UniProt P20273); assay: SPR binding affinity to human CD22; conditions: steady-state analysis
T2 construct: purchased Acro Biosystems SI2-H82E3
T2 sequence (P20273 20-847): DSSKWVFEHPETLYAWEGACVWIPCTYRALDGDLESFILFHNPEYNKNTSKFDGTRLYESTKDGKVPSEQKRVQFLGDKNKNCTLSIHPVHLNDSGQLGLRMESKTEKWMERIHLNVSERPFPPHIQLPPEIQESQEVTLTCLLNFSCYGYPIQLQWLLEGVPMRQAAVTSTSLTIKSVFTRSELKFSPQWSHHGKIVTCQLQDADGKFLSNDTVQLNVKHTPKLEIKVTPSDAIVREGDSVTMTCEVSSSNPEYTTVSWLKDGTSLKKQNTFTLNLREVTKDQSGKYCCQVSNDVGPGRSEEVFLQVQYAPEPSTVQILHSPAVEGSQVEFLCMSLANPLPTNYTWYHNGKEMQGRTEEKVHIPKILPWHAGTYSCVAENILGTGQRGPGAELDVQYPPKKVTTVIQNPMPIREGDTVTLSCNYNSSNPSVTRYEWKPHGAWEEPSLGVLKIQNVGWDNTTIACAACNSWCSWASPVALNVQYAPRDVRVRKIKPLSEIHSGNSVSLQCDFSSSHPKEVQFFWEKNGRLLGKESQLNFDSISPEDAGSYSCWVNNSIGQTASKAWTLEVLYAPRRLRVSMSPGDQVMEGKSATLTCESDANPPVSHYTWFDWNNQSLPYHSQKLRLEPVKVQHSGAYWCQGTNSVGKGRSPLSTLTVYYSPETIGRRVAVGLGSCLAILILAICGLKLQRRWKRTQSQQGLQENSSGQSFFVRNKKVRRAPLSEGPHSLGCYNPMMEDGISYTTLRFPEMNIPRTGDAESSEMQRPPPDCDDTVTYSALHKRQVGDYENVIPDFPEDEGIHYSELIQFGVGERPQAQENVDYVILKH
Method in brief: as §1

cynomolgus Siglec-2/CD22 = cynomolgus Siglec-2/CD22 (Macaca fascicularis, UniProt A0A2K5WCZ6); assay: biochemical; assay type: binding; conditions: SPR, steady-state analysis; read-out: Affinity cyno CD22
Chain of cynomolgus Siglec-2/CD22 (A0A2K5WCZ6 entry or part of it): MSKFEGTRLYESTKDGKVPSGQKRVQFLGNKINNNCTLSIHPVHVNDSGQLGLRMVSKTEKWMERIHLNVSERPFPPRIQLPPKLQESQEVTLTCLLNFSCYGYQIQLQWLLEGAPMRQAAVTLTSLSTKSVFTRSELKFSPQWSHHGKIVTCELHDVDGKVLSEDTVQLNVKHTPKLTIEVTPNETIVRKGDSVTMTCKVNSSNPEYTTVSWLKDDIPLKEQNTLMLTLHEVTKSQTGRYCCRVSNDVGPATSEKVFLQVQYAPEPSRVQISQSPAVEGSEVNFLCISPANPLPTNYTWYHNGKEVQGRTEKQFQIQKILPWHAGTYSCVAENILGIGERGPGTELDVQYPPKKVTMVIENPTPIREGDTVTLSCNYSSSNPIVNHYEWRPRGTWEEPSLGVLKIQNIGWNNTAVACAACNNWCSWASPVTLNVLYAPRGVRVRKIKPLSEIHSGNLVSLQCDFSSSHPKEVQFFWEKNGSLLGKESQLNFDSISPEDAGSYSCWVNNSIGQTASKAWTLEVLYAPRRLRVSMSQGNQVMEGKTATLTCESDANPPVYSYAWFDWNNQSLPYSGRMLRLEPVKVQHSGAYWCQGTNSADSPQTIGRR
Method in brief: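 Compound binding measured by steady-state SPR analysis, 120 s dissociation, in HEPES-NaCl-Tween buffer pH 7.5 containing 1% DMSO, DMSO solvent-corrected. Surface: cyno CD22, sialic acids first stripped by SialoExo for 4 h at 37° C., then amine-coupled onto CM5.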

Structure (SMILES)	Kd [1]	Kd [2]	Kd (cynomolgus Siglec-2/CD22)
C#CCOCCOCCO[C@]1(C(=O)O)C[C@H](O)[C@@H](NC(=O)CC#N)[C@H]([C@H](O)[C@H](O)CNC(=O)Cc2ccc(-c3ccc(O)cc3)cc2)O1 [Compound 58, (2R,4S,5R,6R)-5-(2-cyanoacetamido)-6-((1R,2R)-1,2-dihydroxy-3-(2-(4′-hydroxy-[1,1′-biphenyl]-4-yl)acetamido)propyl)-4-hydroxy-2-(2-(2-(prop-2-yn-1-yloxy)ethoxy)ethoxy)tetrahydro-2H-pyran-2-carboxylic acid]	1000 to 10000 nM	1000 to 10000 nM	1000 to 10000 nM
C#CCOc1ccccc1-c1cn([C@]2(C(=O)O)C[C@H](O)[C@@H](NC(=O)CO)[C@H]([C@H](O)[C@H](O)CNC(=O)Cc3ccc(-c4ccc(O)cc4)cc3)O2)nn1 [Compound 59, (2R,4S,5R,6R)-6-((1R,2R)-1,2-dihydroxy-3-(2-(4′-hydroxy-[1,1′-biphenyl]-4-yl)acetamido)propyl)-4-hydroxy-5-(2-hydroxyacetamido)-2-(4-(2-(prop-2-yn-1-yloxy)phenyl)-1H-1,2,3-triazol-1-yl)tetrahydro-2H-pyran-2-carboxylic acid]	1000 to 10000 nM	< 1000 nM	1000 to 10000 nM
C#CCOc1cccc(-c2cn([C@]3(C(=O)O)C[C@H](O)[C@@H](NC(=O)CO)[C@H]([C@H](O)[C@H](O)CNC(=O)Cc4ccc(-c5ccc(O)cc5)cc4)O3)nn2)c1 [Compound 60, (2R,4S,5R,6R)-6-((1R,2R)-1,2-dihydroxy-3-(2-(4′-hydroxy-[1,1′-biphenyl]-4-yl)acetamido)propyl)-4-hydroxy-5-(2-hydroxyacetamido)-2-(4-(3-(prop-2-yn-1-yloxy)phenyl)-1H-1,2,3-triazol-1-yl)tetrahydro-2H-pyran-2-carboxylic acid]	1000 to 10000 nM	1000 to 10000 nM	1000 to 10000 nM
C#CCCOc1ccc(CO[C@]2(C(=O)O)C[C@H](O)[C@@H](NC(=O)NC)[C@H]([C@H](O)[C@H](O)CNC(=O)Cc3ccc(-c4ccc(O)cc4)cc3)O2)cc1 [Compound 61, (2R,4S,5R,6R)-2-((4-(but-3-yn-1-yloxy)benzyl)oxy)-6-((1R,2R)-1,2-dihydroxy-3-(2-(4′-hydroxy-[1,1′-biphenyl]-4-yl)acetamido)propyl)-4-hydroxy-5-(3-methylureido)tetrahydro-2H-pyran-2-carboxylic acid]	< 1000 nM	< 1000 nM	< 1000 nM
C#CCOCc1cn([C@]2(C(=O)O)C[C@H](O)[C@@H](NC(=O)CO)[C@H]([C@H](O)[C@H](O)CNC(=O)Cc3ccc(-c4ccc(O)cc4)cc3)O2)nn1 [Compound 62, (2R,4S,5R,6R)-6-((1R,2R)-1,2-dihydroxy-3-(2-(4′-hydroxy-[1,1′-biphenyl]-4-yl)acetamido)propyl)-4-hydroxy-5-(2-hydroxyacetamido)-2-(4-((prop-2-yn-1-yloxy)methyl)-1H-1,2,3-triazol-1-yl)tetrahydro-2H-pyran-2-carboxylic acid]	1000 to 10000 nM	1000 to 10000 nM	1000 to 10000 nM
C#CCOCCCCCCO[C@]1(C(=O)O)C[C@H](O)[C@@H](NC(=O)CO)[C@H]([C@H](O)[C@H](O)CNC(=O)Cc2ccc(-c3ccc(O)cc3)cc2)O1 [Compound 63, (2R,4S,5R,6R)-6-((1R,2R)-1,2-dihydroxy-3-(2-(4′-hydroxy-[1,1′-biphenyl]-4-yl)acetamido)propyl)-4-hydroxy-5-(2-hydroxyacetamido)-2-((6-(prop-2-yn-1-yloxy)hexyl)oxy)tetrahydro-2H-pyran-2-carboxylic acid]	< 1000 nM	< 1000 nM	< 1000 nM
C#CCCOc1ccc(CS[C@]2(C(=O)O)C[C@H](O)[C@@H](NC(=O)CO)[C@H]([C@H](O)[C@H](O)CNC(=O)Cc3ccc(-c4ccc(O)cc4)cc3)O2)cc1 [Compound 64, (2S,4S,5R,6R)-2-((4-(but-3-yn-1-yloxy)benzyl)thio)-6-((1R,2R)-1,2-dihydroxy-3-(2-(4′-hydroxy-[1,1′-biphenyl]-4-yl)acetamido)propyl)-4-hydroxy-5-(2-hydroxyacetamido)tetrahydro-2H-pyran-2-carboxylic acid]	< 1000 nM	< 1000 nM	< 1000 nM
C#CCOCCOCCO[C@]1(C(=O)NS(C)(=O)=O)C[C@H](O)[C@@H](NC(=O)CO)[C@H]([C@H](O)[C@H](O)CNC(=O)Cc2ccc(-c3ccc(O)cc3)cc2)O1 [Compound 65, (2R,4S,5R,6R)-6-((1R,2R)-1,2-dihydroxy-3-(2-(4′-hydroxy-[1,1′-biphenyl]-4-yl)acetamido)propyl)-4-hydroxy-5-(2-hydroxyacetamido)-N-(methylsulfonyl)-2-(2-(2-(prop-2-yn-1-yloxy)ethoxy)ethoxy)tetrahydro-2H-pyran-2-carboxamide]	> 10000 nM	> 10000 nM	> 10000 nM
C#CCOCCOCCO[C@]1(C(=O)O)C[C@H](O)[C@@H](NC(=O)CO)[C@H]([C@H](O)[C@H](O)CNC(=O)Cc2ccc(-c3ccccc3)c(O)c2)O1 [Compound 66, (2R,4S,5R,6R)-6-((1R,2R)-1,2-dihydroxy-3-(2-(2-hydroxy-[1,1′-biphenyl]-4-yl)acetamido)propyl)-4-hydroxy-5-(2-hydroxyacetamido)-2-(2-(2-(prop-2-yn-1-yloxy)ethoxy)ethoxy)tetrahydro-2H-pyran-2-carboxylic acid]	> 10000 nM	1000 to 10000 nM	> 10000 nM
C#CCOCCOCCO[C@]1(C(=O)O)C[C@H](O)[C@@H](NC(=O)CO)[C@H]([C@H](O)[C@H](O)CNC(=O)Cc2ccc(-c3ccccc3)cc2O)O1 [Compound 67, (2R,4S,5R,6R)-6-((1R,2R)-1,2-dihydroxy-3-(2-(3-hydroxy-[1,1′-biphenyl]-4-yl)acetamido)propyl)-4-hydroxy-5-(2-hydroxyacetamido)-2-(2-(2-(prop-2-yn-1-yloxy)ethoxy)ethoxy)tetrahydro-2H-pyran-2-carboxylic acid]	1000 to 10000 nM	1000 to 10000 nM	1000 to 10000 nM
C#CCOCCOCCO[C@]1(C(=O)O)C[C@H](O)[C@@H](NC(=O)CO)[C@H]([C@H](O)[C@H](O)CNC(=O)Cc2ccc(-c3ccccc3O)cc2)O1 [Compound 68, (2R,4S,5R,6R)-6-((1R,2R)-1,2-dihydroxy-3-(2-(2′-hydroxy-[1,1′-biphenyl]-4-yl)acetamido)propyl)-4-hydroxy-5-(2-hydroxyacetamido)-2-(2-(2-(prop-2-yn-1-yloxy)ethoxy)ethoxy)tetrahydro-2H-pyran-2-carboxylic acid]	1000 to 10000 nM	< 1000 nM	1000 to 10000 nM
C#CCOCCOCCO[C@]1(C(=O)O)C[C@H](O)[C@@H](NC(=O)CS)[C@H]([C@H](O)[C@H](O)CNC(=O)Cc2ccc(-c3ccc(O)cc3)cc2)O1 [Compound 69, (2R,4S,5R,6R)-6-((1R,2R)-1,2-dihydroxy-3-(2-(4′-hydroxy-[1,1′-biphenyl]-4-yl)acetamido)propyl)-4-hydroxy-5-(2-mercaptoacetamido)-2-(2-(2-(prop-2-yn-1-yloxy)ethoxy)ethoxy)tetrahydro-2H-pyran-2-carboxylic acid]	> 10000 nM	1000 to 10000 nM	> 10000 nM
